# Test results: patent US20250049735A1, “MEDICINE FOR STEATOHEPATITIS” (The University of Tokyo, priority 2021, published 2025)
# Where two headings read alike, the source gives them in different places.
# Experiments:
# Tax-iIEC-KO mice = settings: 8 to 10 weeks of age
# Excerpt: Atp8b1^flox/flox mice were mated with villin-Cre/ERT2 transgenic mice (Stock No. 020282; The Jackson Laboratory), and Atp8b1^flox/+; villin-Cre/ERT2 mice in the obtained offsprings were then mated with Atp8b1^flox/flox mice to obtain Tamoxifen-induced, intestinal epithelial cell (IEC)-specific Atp8b1 knockout (Atp8b1Tax-iIEC-KO: Atp8b1^flox/flox; villin-Cre/ERT2) mice (Atp8b1 Tax-iIEC-KO mice). The resulting Atp8b1 Tax-iIEC-KO mice and littermate Atp8b1^flox/flox mice were used for animal experiments.
# ALT and AST were determined by automatic measurement with Dri-chem (FUJIFILM, Tokyo, Japan).
# The concentrations of choline, betaine, dimethylglycine (N,N-dimethylglycine) and glycerophosphorylcholine (sn-glycero-3-phosphocholine) in plasma were determined by liquid chromatography/tandem mass spectrometry (LC/MS/MS) assay. The sample was mixed with 98-fold volume of ethanol and 1-fold volume of the internal standard (IS) solution (10 μmol/L choline in water, 10 μmol/L glycerophosphorylcholine in water, and 1 μmol/L betaine in water). After vortex mixing, the sample was centrifuged at 21,500×g at 4° C. for 5 minutes. The obtained supernatant was injected into a UHPLC Nexera liquid chromatography system (Shimadzu co., Kyoto, Japan) equipped with an Ascentis Express HILIC column (2.1×50 mm, 2.7 μm, Merck KGaA, Darmstadt, Germany), and was then maintained at 4° C. The analyte was separated from the internal standard by gradient elution of mobile phase A (10 mmol/L ammonium acetate in water) and of mobile phase B (acetonitrile/water mixture) (99:1, v/v)). The gradient elution was carried out under the following conditions: 0-2 min., 82.5% B; 2-4 min., 82.5% to 5% B and 4-7 min. 5% B with a flow rate of 0.6 mL/min. The eluate was directly subjected to electrospray ionization under a positive ion mode using a 5500QTRAP mass spectrometer (Sciex pte. ltd., Toronto, Canada). All target molecules were scanned by selected reaction monitoring (SRM) mode.
# Eight-week-old Tax-iIEC-KO mice and control mice were started to be orally administered with a normal saline, or with 50 mg/kg, 150 mg/kg or 500 mg/kg chloride choline, three times a day, and at the same time, the Tax-iIEC-KO mice and the control mice were administered with 1 mg/day of Tamoxifen for 5 consecutive days. Oral administration with a normal saline, or with 50 mg/kg, 150 mg/kg or 500 mg/kg chloride choline, three times a day, was continued, and thereafter, the mice were dissected at 10 weeks of age. The doses of 150 mg/kg and 500 mg/kg were determined by estimating the amount of choline consumed by the 0.3% choline supplemented diet group and the 1% choline supplemented diet group based on the daily food intake of mice.
# [1] = to such an extent that extension of autologous liver survival was expected; cited from earlier work
# Caco-2 cells = assay: Cytotoxicity test (LDH release) in wild-type Caco-2 cells; settings: wild-type Caco-2 cell line; 24 hours; various concentrations
# Procedure: (§1) Caco-2 cells were cultured in DMEM (Dulbecco's modified Eagle's medium) (11995-065, Thermo Fisher Scientific) supplemented with 10% fetal bovine serum (10437, Thermo Fisher Scientific), 1% nonessential amino acids (11140-050, Thermo Fisher Scientific), 1% penicillin and streptomycin (15140-122, Thermo Fisher Scientific). The cells were cultured under conditions of 37° C., 5% CO2 and a humidity of 95%.
# (§2) 5 mM Edelfosine dissolved in ethanol (CAY-60912-10, Cayman), 10 mg/mL lysophosphatidylcholine (LysoPC) dissolved in water/ethanol (1:1, v/v) (123-03781, FUJIFILM Wako Pure Chemical), and 10 mg/mL lysophosphatidylethanolamine (LysoPE) (L4754, Sigma-Aldrich) dissolved in ethanol were prepared as stock solutions. Caco-2 cells and ATP8B1 KO Caco-2 cells were seeded on 96-well plates at a cell density of 50,000 cells/well, and were then cultured, while replacing the medium with a fresh medium every 2 days. After 7 days of the culture, the cells were cultured for 24 hours in a new medium supplemented with various concentrations of edelfosine, lysophosphatidylcholine and lysophosphatidylethanolamine. Cytotoxicity was measured using, as an indicator, the amount of lactate dehydrogenase (LDH) released from the injured cells into the medium. The amount of LDH in the medium was measured using the Cytotoxicity LDH Assay Kit-WST (CK12, Dojindo) according to the instructions included therewith.
# ATP8B1 KO Caco-2 cells = assay: Cytotoxicity test (LDH release) in ATP8B1 KO Caco-2 cells; settings: ATP8B1 KO Caco-2 cell line; 24 hours; various concentrations
# Procedure: as §1, §2
# ATP8B1+CDC50A = target: T1, ATP8B1+CDC50A (Homo sapiens, UniProt O43520); assay: Flippase (ATP8B1) assay: incorporation of NBD-phospholipids into CHO-K1 cells; type: cell-based; settings: 15° C.
# T1 construct: expressed in transfected cells; host or cells: CHO-K1 cells (CCL-61, ATCC), transiently transfected with PEI MAX
# T1 sequence (O43520 1-1251): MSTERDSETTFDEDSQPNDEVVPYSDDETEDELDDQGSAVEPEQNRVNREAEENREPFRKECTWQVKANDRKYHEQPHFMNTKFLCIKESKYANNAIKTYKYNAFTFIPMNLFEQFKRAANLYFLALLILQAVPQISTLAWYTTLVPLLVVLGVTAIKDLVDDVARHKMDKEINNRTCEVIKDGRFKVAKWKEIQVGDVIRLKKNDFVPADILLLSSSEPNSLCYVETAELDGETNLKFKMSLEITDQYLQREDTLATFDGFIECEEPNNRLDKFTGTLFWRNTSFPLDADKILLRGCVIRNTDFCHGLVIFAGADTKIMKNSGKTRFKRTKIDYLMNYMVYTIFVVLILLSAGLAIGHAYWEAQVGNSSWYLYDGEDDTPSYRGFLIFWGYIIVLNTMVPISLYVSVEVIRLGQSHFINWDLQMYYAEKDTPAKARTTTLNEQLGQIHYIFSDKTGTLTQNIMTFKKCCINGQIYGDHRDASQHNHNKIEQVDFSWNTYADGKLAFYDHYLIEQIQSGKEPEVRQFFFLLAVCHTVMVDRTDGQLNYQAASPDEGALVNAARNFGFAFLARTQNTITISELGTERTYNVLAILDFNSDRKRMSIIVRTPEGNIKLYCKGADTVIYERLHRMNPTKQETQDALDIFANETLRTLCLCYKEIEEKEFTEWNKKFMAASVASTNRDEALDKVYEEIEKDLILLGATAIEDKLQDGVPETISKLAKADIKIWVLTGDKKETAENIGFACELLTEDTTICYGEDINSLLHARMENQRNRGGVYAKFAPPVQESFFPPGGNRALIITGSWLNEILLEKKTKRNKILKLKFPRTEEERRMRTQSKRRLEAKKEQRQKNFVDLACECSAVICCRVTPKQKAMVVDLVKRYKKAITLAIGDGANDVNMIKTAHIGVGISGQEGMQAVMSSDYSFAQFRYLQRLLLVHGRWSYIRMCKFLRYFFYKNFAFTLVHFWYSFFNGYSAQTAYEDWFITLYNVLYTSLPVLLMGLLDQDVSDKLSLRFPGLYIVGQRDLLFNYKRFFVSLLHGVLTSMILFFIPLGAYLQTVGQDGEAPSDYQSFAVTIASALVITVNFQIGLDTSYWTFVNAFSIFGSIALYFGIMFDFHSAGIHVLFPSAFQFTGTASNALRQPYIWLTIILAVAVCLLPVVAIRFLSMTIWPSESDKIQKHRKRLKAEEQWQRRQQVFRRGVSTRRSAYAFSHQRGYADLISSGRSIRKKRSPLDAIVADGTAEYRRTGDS
# T1 sequence (Q9NV96 1-361 partner): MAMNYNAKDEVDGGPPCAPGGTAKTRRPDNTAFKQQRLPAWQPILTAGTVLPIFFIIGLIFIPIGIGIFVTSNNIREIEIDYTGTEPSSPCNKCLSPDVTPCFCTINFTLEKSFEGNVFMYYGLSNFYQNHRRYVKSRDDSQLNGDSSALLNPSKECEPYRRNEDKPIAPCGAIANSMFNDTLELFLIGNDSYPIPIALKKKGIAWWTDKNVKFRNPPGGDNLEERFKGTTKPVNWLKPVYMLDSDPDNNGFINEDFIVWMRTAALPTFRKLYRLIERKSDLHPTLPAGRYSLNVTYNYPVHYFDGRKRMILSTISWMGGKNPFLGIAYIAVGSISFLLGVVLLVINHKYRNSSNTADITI
# Procedure: The experiment regarding incorporation of NBD-phospholipids into cells was carried out according to the previous reports (Suzuki et al., Nature 468, 834-838 2010; Takatsu et al., J. Biol. Chem., 289:33543-33556 2014).
# To allow CDC50A alone, or ATP8B1 and CDC50A, to express in CHO-K1 cells, the CHO-K1 cells (CCL-61, ATCC, Manassas, VA) were transfected with the plasmids (pShuttle-EV, or pShuttle-ATP8B1-FLAG and pShuttle-HA-CDC50A), using PEI MAX (Polysciences, Warrington, PA). Forty-eight hours after the transfection, the cells were detached from dishes and were collected in PBS containing 5 mM EDTA, and thereafter, the cells were recovered in a precipitate by centrifugation. The cells (2×10^6 cells/sample) were washed and were then equilibrated at 15° C. for 15 minutes in 500 μL of HBSS (14025092, Thermo Fisher Scientific). An equal volume of 1 μg/mL 18:1-06:0 NBD-PC (810132, Avanti Polar Lipids) or 10 μg/mL 12:0 LysoNBD-PC (810128P: Avanti Polar Lipids) was added to the cell suspension, and the obtained mixture was then incubated at 15° C. Thereafter, at each time point, 300 μL of a cell suspension was collected, and was mixed with 300 μl of HBSS (ice cold) containing 5% fatty acid-free BSA (A6003: Sigma-Aldrich) to extract NBD-lipids incorporated into the exoplasmic leaflet of the plasma membrane as well as unincorporated NBD-Lipids.
# Next, 10,000 cells were analyzed with a BD FACSCelesta (BD Bioscience, San Jose, CA) to measure the fluorescence of NBD-lipids incorporated into the cytoplasmic leaflet of the plasma membrane. The mean value of the fluorescence intensities per cell was calculated. Propidium iodide (P378: DOJINDO, Kumamoto, Japan) positive cells were excluded from the analysis.
# [2] = oral 50 mg/kg three times a day
# [3] = oral 150 mg/kg three times a day
# [4] = oral 500 mg/kg three times a day
# [5] = CHO-K1 cells expressing functional ATP8B1 (ATP8B1+CDC50A)
# [6] = CHO-K1 cells without ATP8B1 expression (EV)
compound,measurement,setting,value
C[N+](C)(C)CCO.[Cl-] [chloride choline],body weight loss of the Tax-iIEC-KO mice,Tax-iIEC-KO mice; [2],suppression
same,concentration of betaine in the liver,Tax-iIEC-KO mice; [2],recovered up to the same level as those in the control mice
same,concentration of choline in the liver,Tax-iIEC-KO mice; [2],recovered up to the same level as those in the control mice
same,liver injury markers (AST and ALT),Tax-iIEC-KO mice; [2],normalization
same,body weight loss of the Tax-iIEC-KO mice,Tax-iIEC-KO mice; [3],suppression
same,concentration of betaine in the liver,Tax-iIEC-KO mice; [3],recovered up to the same level as those in the control mice
same,concentration of choline in the liver,Tax-iIEC-KO mice; [3],recovered up to the same level as those in the control mice
same,liver injury markers (AST and ALT),Tax-iIEC-KO mice; [3],normalization
same,body weight loss of the Tax-iIEC-KO mice,Tax-iIEC-KO mice; [4],suppression
same,concentration of betaine in the liver,Tax-iIEC-KO mice; [4],recovered up to the same level as those in the control mice
same,concentration of choline in the liver,Tax-iIEC-KO mice; [4],recovered up to the same level as those in the control mice
same,liver injury markers (AST and ALT),Tax-iIEC-KO mice; [4],normalization
sodium phenylbutyrate,therapeutic effects on PFIC1,[1],did not exhibit therapeutic effects on PFIC1
lysophosphatidylcholine [LPC],cytotoxicity (LDH released into the medium),Caco-2 cells,did not cause significant cytotoxicity
same,cytotoxicity (LDH released into the medium),ATP8B1 KO Caco-2 cells,increased cytotoxicity in a dose-dependent manner
"C[N+](C)(C)CCOP(=O)([O-])OCC(O)COC(=O)CCCCCCCCCCCNc1ccc([N+](=O)[O-])c2nonc12 (stereo not shown) [NBD-LysoPC, 12:0 LysoNBD-PC]",incorporation of NBD-lipid into the cells (flow cytometry),ATP8B1+CDC50A; [5],incorporated into the cells
same,incorporation of NBD-lipid into the cells (flow cytometry),ATP8B1+CDC50A; [6],incorporated into the cells in reduced amounts
18:1-06:0 NBD-PC,incorporation of NBD-lipid into the cells (flow cytometry),ATP8B1+CDC50A; [5],incorporated into the cells
same,incorporation of NBD-lipid into the cells (flow cytometry),ATP8B1+CDC50A; [6],incorporated into the cells in reduced amounts
